The data set is described as follows: Stability against non-enzymatic hydrolysis in buffer. Conditions: 1/15 molar phosphate buffer (pH 8.20) at 37°C for 90 minutes. The data set is classed as physicochemical.

Each structure is given as a SMILES string.

Take `C[N+](C)(C)CCOC(=O)c1ccc(O)c(O)c1.[I-]` [DHBCI, 3,4-dihydroxybenzoylcholine iodide]: the non-enzymatic hydrolysis result was “substantially no hydrolysis”.

The values are drawn from patent EP0155825A2, “Novel choline derivatives” (NITTO BOSEKI CO., LTD., priority 1984, dated 1985).
